Legend:
[1] = system: 293-VnR cells transfected with ADAM12Δcyt; test: In situ solid-phase gelatinase assay, 293-VnR cells transfected with ADAM12Δcyt; assay type: cell-based, human; details: 10 μM overnight vs vehicle only
Description: Data are expressed as the mean gelatin degradation (±s.d.) relative to the mean ADAM12Δcyt degradation value (set at 100%). (B) In situ solid-phase gelatinase assay of 293-VnR cells transfected with ADAM12Δcyt or control vector and treated with GM6001 (10 μM), TAPI-2 (10 μM), or vehicle only (control) overnight. Cells were stained for ADAM12 and for the nucleus (DAPI). The mean number of gelatin-degrading ADAM12-positive cells (±s.d.) is presented as a percentage of the total number of ADAM12-positive cells. (C) In situ solid-phase gelatinase assay of 293-VnR cells cotransfected with ADAM12Δcyt and control or MMP-14 siRNA. Mean data (±s.d.) are expressed relative to the mean siRNA control degradation value (set at 100%). Inset, Western blots of total cell lysates analyzed for MMP-14. […] Gelatin degradation was quantified by measuring the degraded area in μm^2 and correlated to the number of cells. […]
(A) In situ solid-phase gelatinase assay of HEK293 cells transfected with ADAM12Δcyt and immunostained for ADAM12, and DAPI staining. […] Precipitates and input samples were analysed by Western blotting with indicated antibodies. […] (E) Mean percentage cell-surface staining of αVβ3 integrin (LM609 antibody staining) for MCF7, MCF7-A12Δcyt, MCF7-A12Δcyt+dox, and MDA-MB-231 cell lines analyzed by FACS. […]

MCF7-A12Δcyt cells = test: Type I collagen-induced apoptosis in 3-D collagen cultures, MCF7-A12Δcyt; assay type: cell-based, human; details: 10 μM GM6001 every second day
Description: (§1) (A) MCF7, MCF7-A12Δcyt, and MCF7-A12Δcyt+dox cell lines were embedded in 3-D collagen and the mean percentage of apoptotic bodies (±s.d.) was determined from >500 cells per experiment. (B) Western blot analysis of ADAM12, MMP-14, BIK, and BIM from cells recovered from 3-D collagen. The bar graph depicts levels of BIK and BIM; determined by quantification of the band intensities (using ImageJ software) and normalized to actin. The MCF7 level was set to 1. (C,D) Mean percentage of apoptotic bodies (±s.d.) from >500 cells of 3-D collagen cultures of MCF7, MCF7-A12Δcyt, and MCF7-A12Δcyt+dox (C) and MDA-MB-231. (D) Cells treated every second day with control mouse IgG, 10 μg/ml 8F8, or 10 μM GM6001. (E) Western blot of cells recovered from 3-D cultures of MDA-MB-231 cells analyzed for MMP-14 after siRNA treatment. […]
(§2) (A) A representative micrograph of MCF7-A12Δcyt+dox cells extracted from 3-D cultures and stained with DAPI. Apoptosis was evaluated by counting the percentage of the number of cells with chromatin condensation and nuclear fragmentation (arrow=apoptotic bodies). […]
(§3) Cells were seeded on dishes coated with gelatin (10 μg/ml) coupled to Oregon Green® 488 dye (G-13186) from Molecular Probes (Life Technologies, Naerum, Denmark). […] For each experiment more than 1000 cells were counted and same type of experiment was repeated independently at least three times. […]

wild-type MCF7 cells = test: Type I collagen-induced apoptosis in 3-D collagen cultures, wild-type MCF7; assay type: cell-based, human; details: 10 μg/ml 8F8 or 10 μM GM6001 every second day
Description: as §1, §2, §3

MCF7-A12Δcyt+dox cells = test: Type I collagen-induced apoptosis in 3-D collagen cultures, MCF7-A12Δcyt+dox; assay type: cell-based, human; details: 10 μg/ml 8F8 or 10 μM GM6001 every second day
Description: as §1, §2, §3

MDA-MB-231 cells = test: Apoptosis in 3-D collagen cultures, MDA-MB-231; assay type: cell-based, human; details: 10 μg/ml 8F8 or 10 μM GM6001 every second day, compared with control cells
Description: as §1, §2, §3

αVβ3 integrin = αVβ3 integrin (UniProt P06756); test: cell-based or functional assay
Sequence of UniProt P06756 (P06756 31-1048, chain 1 of 2): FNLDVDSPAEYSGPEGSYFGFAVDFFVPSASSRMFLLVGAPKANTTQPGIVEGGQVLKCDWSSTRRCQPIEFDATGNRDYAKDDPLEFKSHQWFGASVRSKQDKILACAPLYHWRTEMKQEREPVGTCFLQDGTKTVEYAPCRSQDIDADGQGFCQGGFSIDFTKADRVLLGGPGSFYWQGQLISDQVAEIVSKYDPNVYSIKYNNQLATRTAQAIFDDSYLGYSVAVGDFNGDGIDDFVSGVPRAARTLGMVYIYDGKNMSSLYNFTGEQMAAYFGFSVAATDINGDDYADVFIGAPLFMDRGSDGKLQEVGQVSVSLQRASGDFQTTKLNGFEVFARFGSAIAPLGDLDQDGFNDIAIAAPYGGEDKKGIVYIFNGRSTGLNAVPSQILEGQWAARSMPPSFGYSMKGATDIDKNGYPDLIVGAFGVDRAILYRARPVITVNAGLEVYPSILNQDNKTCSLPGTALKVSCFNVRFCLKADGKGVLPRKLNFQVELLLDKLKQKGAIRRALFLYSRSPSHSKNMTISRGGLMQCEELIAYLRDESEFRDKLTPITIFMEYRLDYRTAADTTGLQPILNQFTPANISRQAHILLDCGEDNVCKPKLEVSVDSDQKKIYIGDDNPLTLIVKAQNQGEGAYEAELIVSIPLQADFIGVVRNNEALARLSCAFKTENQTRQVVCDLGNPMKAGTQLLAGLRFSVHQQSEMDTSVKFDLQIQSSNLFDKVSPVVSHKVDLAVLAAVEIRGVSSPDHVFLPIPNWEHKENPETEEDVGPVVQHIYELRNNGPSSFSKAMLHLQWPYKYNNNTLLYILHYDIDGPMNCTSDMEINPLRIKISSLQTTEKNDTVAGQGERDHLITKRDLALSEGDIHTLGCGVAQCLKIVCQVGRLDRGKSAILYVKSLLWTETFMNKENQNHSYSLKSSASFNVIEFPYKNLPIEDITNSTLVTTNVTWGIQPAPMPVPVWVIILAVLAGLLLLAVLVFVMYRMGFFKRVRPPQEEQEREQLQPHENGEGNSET
Sequence of UniProt P06756 (P05106 27-788, chain 2 of 2, further chain): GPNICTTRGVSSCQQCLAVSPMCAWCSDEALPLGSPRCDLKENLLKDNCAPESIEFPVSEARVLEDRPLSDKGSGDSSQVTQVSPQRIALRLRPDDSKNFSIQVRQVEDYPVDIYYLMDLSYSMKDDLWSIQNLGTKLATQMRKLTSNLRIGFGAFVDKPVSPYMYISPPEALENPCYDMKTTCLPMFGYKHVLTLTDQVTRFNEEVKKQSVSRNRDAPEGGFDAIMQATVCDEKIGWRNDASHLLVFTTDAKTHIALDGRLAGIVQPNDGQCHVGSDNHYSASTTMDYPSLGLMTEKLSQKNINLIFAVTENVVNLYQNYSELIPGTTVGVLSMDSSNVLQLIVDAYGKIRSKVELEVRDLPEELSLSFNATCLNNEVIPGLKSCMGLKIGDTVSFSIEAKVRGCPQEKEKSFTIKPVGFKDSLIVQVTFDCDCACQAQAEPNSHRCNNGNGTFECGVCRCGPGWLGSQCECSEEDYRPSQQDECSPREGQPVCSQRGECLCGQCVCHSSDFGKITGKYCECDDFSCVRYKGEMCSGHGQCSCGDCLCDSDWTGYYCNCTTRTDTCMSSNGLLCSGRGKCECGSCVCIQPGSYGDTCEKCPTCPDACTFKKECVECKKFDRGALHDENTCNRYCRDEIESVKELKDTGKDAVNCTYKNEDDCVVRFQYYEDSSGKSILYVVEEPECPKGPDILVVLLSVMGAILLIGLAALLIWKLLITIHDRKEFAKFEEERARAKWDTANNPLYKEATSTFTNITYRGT

Row | Compound | gelatin degradation [1] | fraction of apoptotic bodies (MCF7-A12Δcyt cells) | effect on apoptosis (apoptotic bodies, ApopTag) (wild-type MCF7 cells) | effect on apoptosis (apoptotic bodies, ApopTag) (MCF7-A12Δcyt+dox cells) | levels of apoptotic bodies (MDA-MB-231 cells) | reduction of gelatin degradation in MCF7-A12Δcyt cell cultures (αVβ3 integrin)
1 | CC(C)C[C@H](CC(=O)NO)C(=O)N[C@H](C(=O)N[C@@H](C)C(=O)NCCN)C(C)(C)C [TAPI-2] | significant reduction | – | – | – | – | –
2 | CNC(=O)[C@H](Cc1c[nH]c2ccccc12)NC(=O)[C@@H](CC(=O)NO)CC(C)C [GM6001] | significant reduction | significantly increased | no effects | no effects | significantly increased | –
3 | mouse monoclonal antibody LM609 against αVβ3 integrin (Chemicon/Millipore) | – | – | – | – | – | 80%
